Reference: article PMC5382548 (Scientific Reports, 2015)
“And” between values parts separate entries of the source, which are not always exact repeats. Identical values can stand only once.

Tests used:
KRAS21R G4 = experiment: Spectrofluorimetric titration with KRAS21R G4; assay type: binding, human; details: for Apparent association constant Ka (KRAS21R): ligand 1 μM, K-cacodylate pH 7.4, 60 mM K+, 25°C; for Hill constant h (KRAS21R): one-site saturation binding Hill slope model
Protocol: To characterize the binding of IQc to DNA structures, spectrofluorimetric titration assays were performed with the non-substituted (2a), mono-alkyldiamine (2d) and di-alkyldiamine (3e) derivatives using un-labelled KRAS21R G4 and 26ds-DNA. […] Their fluorescence intensity was proportional to concentration up to 10 μM. […] The fluorescence titration data (Figure 4) was fitted to the Scatchard model[25] (Figure 4, insets). […] Scatchard plots of 2d and 3e (Figure 4b–c, insets) are all concave-down nonlinear curves, which may denote different positive cooperative binding sites in G4, with more than one equivalent and non-independent binding sites. […] Therefore, association constants for 2d and 3e were obtained from the one-site saturation binding Hill slope model (Figure 4b–c). These are apparent binding constants, i.e. they are macroscopic Ka which reflect the total binding.
Figure 4 Fluorescence data of (a) 2a, (b) 2d, and (c) 3e (1 μM) in K-cacodylate buffer (pH 7.4, containing 60 mM K^+) at 25°C, titrated with KRAS21R and HT21 G4s, and 26ds, fitted to the saturation binding equations and Scatchard model (insets).
Fluorescence data were collected with a λex of 290 nm and a λem around 475 nm for 2d and 3e, and a λex of 275 nm and a λem around 460 for 2a. Test compounds were prepared as 1 mM in HPLC-grade water (10% DMSO) stock solutions. The rest of the dilutions were performed using K-cacodylate buffer (pH = 7.4, containing 60 mM K^+). The G4 single-strand oligonucleotide sequences were initially diluted from the storage solution (100 μM) with K-cacodylate, to a stock solution at 25 μM. The titration data were obtained by adding aliquots of previously annealed G4 (heating to 95°C for 10 min, followed by slow cooling to RT) to a solution of the indolo[3,2-c]quinoline ligand (1 μM) in K-cacocylate buffer at 25°C (additional details in Supplementary Information).
Figure S7. Fluorescence titrations of 1 μM indolo[3,2-c]quinoline 2d (1µM) with KRAS21R G4 and 26ds DNA in K-cacodylate buffer pH 7.4, containing 60 mM K+ at 25 °C.
Concentration of DNA increase from the top to the bottom (grey lines) Excitation […]
Figure S8. Fluorescence titrations of 1 μM indolo[3,2-c]quinoline 3e (1µM) with KRAS21R […]
The titration data obtained were used to construct Scatchard plots with the concentration of bound and free ligand (Cb and Cf, respectively). […]
number of moles of ligand bound to 1 mol of G4 (r = Cb/CDNA) were calculated.
Saturation binding isotherms were represented as Scatchard plots, by plotting r/Cf versus r and evaluated according to the model of McGhee and von Hippel. Dissociation constants were determined by fitting the titration experimental data to one-site saturation binding equation or to one-site saturation binding to the Hill slope equation supplied with the GraphPad PRISM software (GraphPad, Version 5.00, San Diego, CA).
Association constants (Ka) were calculated from dissociation constants (Kd). Scatchard lines represented in the Scatchard plots were calculated from the data fitting to the binding equations (x = 0, y = Fmax/Kd; x = Fmax , y = 0; slope = -Ka). […]

[1] = tested on: F21T (DNA, G4) GGGTTAGGGTAGGGTTAGGG; experiment: FRET melting; details: 60 mM K+; K-cacodylate pH 7.4; 0.2 μM DNA, 1 μM compound; SD ≤ 0.2
[2] = tested on: UTR-1 (RNA, G4) GCGGCGGCGGAGG; experiment: FRET melting; details: 60 mM K+; K-cacodylate pH 7.4; 0.2 μM RNA, 1 μM compound; SD ≤ 0.2
[3] = tested on: KRAS21R (DNA, G4) AGGGCGGTGTGGGAAGAGGGA; experiment: spectrofluorimetric titration, one-site Hill slope fit; details: 60 mM K+, K-cacodylate pH 7.4, 25 °C, 1 μM compound, apparent, SD ≤ 0.2 × 10^6
[4] = tested on: UTR-1 G4 in the 5′UTR of KRAS mRNA; experiment: FRET melting assay, UTR-1 RNA G4; assay type: binding; details: G4 0.2 μM, ligand 1 μM
Protocol: Two compounds 2d and 3e were selected and evaluated for their ability to stabilize the 32-mer sequence in the NHE of the human KRAS promoter (KRAS32R)[12], two G4 motifs in the 5′UTR of KRAS mRNA (UTR-1 and UTR-2)[24] and a 21-mer DNA G4 from the human telomeric sequence (F21T). The KRAS32R sequence has been described as forming two G4 structures which exist in equilibrium. One sequence folds into a G4 (Q1) with a Tm of ~55°C that is disrupted on increasing the temperature and then, the full-length 32-mer sequence folds into a new G4 (Q2, Tm of ~72°C)[13]. In our assay, the KRAS32R sequence (in the presence or absence of IQcs) folded in a single G4 structure (Tm ≈ 54°C), as shown by the single inflection for the first derivative of the FRET melting data (Sup. Inf.; Figure S4). This monophasic behaviour was also observed in the presence of TMPyP4[13].
Oligonucleotide sequences were purchased from Eurofins MWG Synthesis GmbH, Germany or STAB VIDA Genomics Lab, Caparica, Lisbon, Portugal. […]
The ability of indolo[3,2-c]quinolines to stabilize DNA sequences was investigated using a Fluorescence Resonance Energy Transfer (FRET) assay as reported elsewhere.

[5] = tested on: 26ds (ds26) (DNA, duplex) CAATCGGATCGAATTCGATCCGATTG; experiment: spectrofluorimetric titration, one-site Hill slope fit; details: 60 mM K+, K-cacodylate pH 7.4, 25 °C, 1 μM compound, apparent, SD ≤ 0.2 × 10^6
[6] = tested on: KRAS32R (DNA, G4) AGGGCGGTGTGGGAAGAGGGAAGAGGGGGAGG; experiment: FRET melting; details: 60 mM K+; K-cacodylate pH 7.4; 0.2 μM DNA, 1 μM compound; SD ≤ 0.2

Structure (SMILES)	Apparent association constant Ka (KRAS21R) (KRAS21R G4)	ΔTm [1]	ΔTm [2]	Ka ([3]; Hill 2.0)	ΔTm UTR-1 [4]	Hill constant h (KRAS21R) (KRAS21R G4)	Ka ([5]; Hill 1.5)	ΔTm [6]	Ka ([3]; Hill 2.4)	Ka ([5]; Hill 2.5)
Cn1cc2c3ccccc3nc-2c2cc(Br)ccc21 [2a, 2-bromo-5-methyl-indolo[3,2-c]quinoline]	1.7 × 10^6 M^−1 and 1.7/-- × 10^6 M^−1	5.6 °C	–	–	–	–	–	–	–	–
CCN(CC)CCCNc1ccc2c(c1)c1[nH]c3ccccc3c1c[n+]2C [2d]	4.4e+06 M⁻¹	17.7 °C	5.1 °C	4.4e+06 M⁻¹	5.1 °C	2.0	2.8e+06 M⁻¹	10.7 °C	–	–
CCN(CC)CCCNc1ccc2c(c1)[nH]c1c2c[n+](C)c2ccc(NCCCN(CC)CC)cc12.[Cl-] [3e]	8.6e+06 M⁻¹	30.7 °C	15.7 °C	–	15.7 °C	2.4	–	17.0 °C	8.6e+06 M⁻¹	3.2e+06 M⁻¹
